Literature values in patent US7163917B2, “Synthesis method of alanylglutamine” (priority 2002, dated 2007).
Blank lines part the entries; values can stand above or below the compound they belong to. Peptide text beside a SMILES is read from it.

Legend:
[1] = solution, storage, heating to sterilize
[2] = within human body; quickly degraded into composition amino acids
[3] = healthy human body, long period intravenous drip
[4] = background statement

- solubility (in words): low in solubility
Structure (SMILES): NC(=O)CC[C@H](N)C(=O)O [GLN, glutamine]

- solubility relative to GLN monomer (synthesized by chemical method, after purification): 20 times
- half-life (in words) [2]: short
- kidney functions [3]: not influenced
Structure (SMILES): C[C@H](N)C(=O)N[C@@H](CCC(N)=O)C(=O)O [L-Ala-L-Gln, L-alanyl-L-glutamine] (H-Ala-Gln-OH)
- stability (in words) [1]: stable in storage and at heating for sterilization
- side effects and harmful reaction [3]: no side effects and harmful reaction occur

- quantity absorbed that is excreted from urea [4]: 40%
- stability (in words) [1]: stable at heating
Structure (SMILES): CC(=O)N[C@@H](CCC(N)=O)C(=O)O [acetylglutamine, reference compound]

- half-life (in words) [2]: short
Structure (SMILES): NCC(=O)N[C@@H](CCC(N)=O)C(=O)O [glycylglutamine, L-glycyl-L-glutamine, reference compound] (H-Gly-Gln-OH)
